Measurements: US5914237A, “Kinase receptor activation assay” (Genentech Incorporated, priority 1995, dated 1999)
Read-outs that look alike come from different tables or passages of the source. Blank lines part the entries; values can stand above or below the molecule they belong to.

How the values were obtained:
[1] = test system: p185^HER2 (HER2 receptor); assay: p185HER2 KIRA ELISA (receptor autophosphorylation in MCF-7 cells); assay type: cell-based, human; conditions: for receptor stimulation and autophosphorylation (assay specificity, FIG. 8): HRG up to 3000 pM, other ligands up to 30000 pM
Experimental: MCF-7 cells (2×10^5) in 100 μl media were added to each well in a flat-bottom-96 well culture plate and cultured overnight at 37° C. in 5% CO2. The following morning the well supernatants were decanted, and the plates were lightly tamped on a paper towel. 50 μl of media containing either experimental samples or the recombinant HRGβ1177-244 standards (3000, 1000, 333, 111, 37, 12, 4, and 0 pM) was then added to each well. The cells were stimulated at 37° C. for 30 min., the well supernatants were decanted, and the plates were once again lightly tamped on a paper towel. To lyse the cells and solubilize the receptors, 100 μl of lysis buffer was added to each well. Lysis buffer consisted of 150 mM NaCl containing 50 mM HEPES (Gibco), 0.5% Triton-X 100 (Gibco), 0.01% thimerosal, 30 KIU/ml aprotinin (ICN Biochemicals, Aurora, Ohio), 1 mM 4-(2-aminoethyl)-benzenesulfonyl fluoride hydrochloride (AEBSF; ICN Biochemicals), 50 μM leupeptin (ICN Biochemicals), and 2 mM sodium orthovanadate (Na3 VO4, Sigma Chemical Co, St. Louis, Mo.), pH 7.5. The plate was then agitated gently on a plate shaker (Bellco Instruments, Vineland, N.J.) for 60 min. at room temperature.
While the cells were being solubilized, an ELISA microtiter plate (Nunc Maxisorp, Inter Med, Denmark) coated overnight at 4° C. with the affinity-purified polyclonal anti-HER2 ECD (1.0 μg/ml in 50 mM carbonate buffer, pH 9.6, 100 μl/well) was decanted, tamped on a paper towel and blocked with 150 μl/well of Block Buffer [PBS containing 0.5% BSA (Intergen Company, Purchase, N.Y.) and 0.01% thimerosal] for 60 min. at room temperature with gentle agitation. After 60 minutes, the anti-HER2 ECD coated plate was washed 6 times with wash buffer (PBS containing 0.05% Tween-20 and 0.01% thimerosal) using an automated plate washer (ScanWasher 300, Skatron Instruments, Inc, Sterling, Va.).
The lysate containing solubilized p185^HER2 from the cell-culture microtiter well was transferred (85 μl/well) to anti-rHER2 ECD coated and blocked ELISA well and was incubated for 2 h at room temperature with gentle agitation. […] The absorbance at 450 nm was read with a reference wavelength of 650 nm (ABS450/650), using a vmax plate reader (Molecular Devices, Palo Alto, Calif.) controlled with a Macintosh Centris 650 (Apple Computers, Cupertino, Calif.) and DeltaSoft software (BioMetallics, Inc, Princeton, N.J.).
The standard curve shown in FIG. 7 was generated by stimulating MCF-7 cells with 3000, 1000, 333, 111, 37, 12, 4, or 0 pM HRGβ1177-244 and presented as pM HRGβ1177-244 vs. mean ABS450/650 ±sd using the DeltaSoft program. Sample concentrations were obtained by interpolation of their absorbance on the standard curve and are expressed in terms of pM HRGβ1177-244 activity.

trkC.IgG = assay: Competitive displacement binding with iodinated NT3 to trkC.IgG; set-up: species or system human
Experimental: (§1) The media mentioned above (having the gD.trk.IgG) was used without further purification in binding assays to assess the effects of the presence of the gD flag polypeptide on neurotrophin binding to the gD.trk.IgG polypeptides. DNA encoding untagged trk.IgG polypeptide was run in parallel as a control. trk.IgG and gD tagged trk.IgG containing cell supernatants were prepared as described and used in competitive displacement assays with the appropriate iodinated neurotrophin. NGF is used as ligand for trkA, NT5 is used as ligand for trkB, and NT3 is used as a ligand for trkC.

trkA.IgG = assay: Competitive displacement binding with iodinated NGF to trkA.IgG; set-up: species or system human
Experimental: as §1

trkB.IgG = assay: Competitive displacement binding with iodinated NT5 to trkB.IgG; set-up: species or system human
Experimental: as §1

Molecule: insulin: insulin
- receptor stimulation and autophosphorylation (assay specificity, FIG. 8) [1]: Neither insulin-like growth factor-1 (IGF-1), vascular endothelial growth factor (VEGF) nor insulin have any detectable effect

Molecule: IGF-1: insulin-like growth factor-1
- receptor stimulation and autophosphorylation (assay specificity, FIG. 8) [1]: Neither insulin-like growth factor-1 (IGF-1), vascular endothelial growth factor (VEGF) nor insulin have any detectable effect

- IC50 (trkC.IgG; gD tagged trkC.IgG, read-out: IC50 with gD): 0.0302 ± 0.0007 nM
- IC50 (trkC.IgG; trkC.IgG, untagged, read-out: IC50 without gD): 0.0311 ± 0.0011 nM
Molecule: NT3: neurotrophin 3 prepared by recombinant techniques; ligand for trkC

Molecule: EGF: epidermal growth factor
- OD450/650 ([1]; highest concentration tested (100 nM)): 0.239

- IC50 (trkA.IgG; gD tagged trkA.IgG, read-out: IC50 with gD): 0.0688 ± 0.003 nM
- IC50 (trkA.IgG; trkA.IgG, untagged, read-out: IC50 without gD): 0.0684 ± 0.0119 nM
Molecule: NGF: nerve growth factor prepared by recombinant techniques; ligand for trkA

Molecule: VEGF
- receptor stimulation and autophosphorylation (assay specificity, FIG. 8) [1]: Neither insulin-like growth factor-1 (IGF-1), vascular endothelial growth factor (VEGF) nor insulin have any detectable effect

- IC50 (trkB.IgG; gD tagged trkB.IgG, read-out: IC50 with gD): 0.0121 ± 0.018 nM
- IC50 (trkB.IgG; trkB.IgG, untagged, read-out: IC50 without gD): 0.0311 ± 0.0156 nM
B1: NT5: neurotrophin 5 prepared by recombinant techniques; ligand for trkB (protein, UniProt P34130 81-210, looked up)
Neurotrophin-4: GVSETAPASRRGELAVCDAVSGWVTDRRTAVDLRGREVEVLGEVPAAGGSPLRQYFFETRCKADNAEEGGPGAGGGGCRGVDRRHWVSECKAKQSYVRALTADAQGRVGWRWIRIDTACVCTLLSRTGRA
